The text below walks through data of patent publication US12312379B2, “Methods for producing cyclic compounds comprising N-substituted amino acid residues” (Chugai Seiyaku Kabushiki Kaisha, priority 2021, dated 2025).

The conditions of data set [1]: water/octanol; literature or database values; cited from earlier work.
For data set [2] the following is noted: cited from earlier work.
The conditions of data set [3]: Merck Index 14th Edition; Org. Process Res. Dev. 2007 for 2-MeTHF; cited from earlier work.
Data set [4] can be described thus: Water content by Karl Fischer titration (CA-200). Format: physicochemical. The settings on record: wet crystals. An excerpt:
The conditions for analyzing the water content by Karl Fischer titration method are shown below. • Instrument: CA-200 (manufactured by Nittoseiko Analytech Co., Ltd.) • Anolyte: Aquamicron AKX • Catholyte: Aquamicron CXU

The next data set in a line: Amount of acetone by GC. The format is physicochemical. The settings on record: wet crystals. The procedure: The conditions for analyzing the amount of acetone by GC are shown below. • Instrument: GC-2010 (manufactured by SHIMADZU CORPORATION) • Column: DB-624 (Agilent), 0.530 mm ID×30 m, 3.00 μm • Column temperature: 50° C. (5 min)→10° C./min→90° C. (0 min)→50° C./min→240° C. (5 min) • Injector temperature: 230° C. • Detector temperature: 250° C. • Split ratio: 20/1 • Flow rate: 30 cm/sec

Data set [5] in a line: Powder X-ray diffraction at different humidities. The format is physicochemical. Particulars: 35.0 °C, relative humidity of 75% to 0%, versus Form C obtained in Example 25. As to the method: Powder X-ray diffraction of the hydrate crystals (Form C) of Compound 1 prepared in Example 26 was measured at different humidities by the following method. Measurement apparatus: SmartLab System, D/Tex Ultra detector, humidity generator HUM-SL (manufactured by Rigaku Corporation) • Anticathode: Cu • Tube voltage: 45 kV • Tube current: 200 mA • Scanning range: 5-30° • Scanning speed: 0.7°/min • Sampling width: 0.02° • Varying humidity conditions: […]

Data set [6] in a line: Water content by Karl Fischer titration (CA-310). Particulars: after acclimatization of the sample to laboratory environment. Format: physicochemical. As to the method: The water content of the hydrate crystals (Form C) of Compound 1 prepared in Example 26 was measured by Karl Fischer titration method. After acclimatization of the sample to laboratory environment, the measurement was carried out using CA-310 (manufactured by Nittoseiko Analytech).

A short description of data set [7]: Dynamic water vapor adsorption (DVS Intrinsic). The settings on record: 25° C., relative humidity range of 0% to 95%, relative to the weight when the relative humidity is 0%. Format: physicochemical. The procedure:
The dynamic water vapor adsorption properties of the hydrate crystals (Form C) of Compound 1 prepared in Example 26 were measured by the following method. The results are shown in FIG. 10. • Measurement apparatus: DVS Intrinsic (manufactured by Surface Measurement Systems) • Temperature: 25° C. • Relative humidity (%) measurement points: • Cycle 1: 0, 10, 20, 30, 40, 50, 60, 70, 80, 90, 95, 90, 80, 70, 60, 50, 40, 30, 20, 10, 0(%); • Cycle 2: 10, 20, 30, 40, 50, 60, 70, 80, 90, 95, 90, 80, 70, 60, 50, 40, 30, 20, 10, 0(%) • Threshold: 0.001 dm/dt (%/min) • Minimum adsorption time: 10 min • Maximum adsorption time: 1440 min

Setting [8] is: Org. Process Res. Dev. 2007 / J. Mol. Catal. A Chem. 2010.

Values after ≈ are worked out from the molar mass of the structure shown. Where two headings read alike, the source gives them in different places. Some results are limits rather than exact numbers.

With `CC1CCCO1` (stereo not drawn) [Compound 2-MeTHF, 2-methyltetrahydrofuran], in data set [1], the “log Kow values or predicted log Kow values” is on record as 1.35. Further, the “amount that dissolves in 1 L of water” value in data set [2] (setting [8]) is given as 140 g. For the same compound, in data set [2] (room temperature (e.g. 25° C.)), the water solubility was 150 mg/mL (≈ 1740 mM). In data set [3], the “miscibility / solubility in water (in words)” value (“miscibility / solubility” for short) is reported as “not miscible with water”.

Take `C[S+](C)[O-]` [DMSO, dimethyl sulfoxide]: in data set [1], the “log Kow values or predicted log Kow values” is recorded as −0.31. In addition, the water solubility in data set [2] (ChemIDplus Advanced (NIH)) is 1000 mg/mL (≈ 12800 mM). The “miscibility / solubility” value in data set [3] is “soluble in water”.

Turning to `CC#N` [acetonitrile], the “log Kow values or predicted log Kow values” in data set [1] is recorded as −0.34. For the same compound, in data set [3], the “miscibility / solubility” value is given as “miscible with water”.

As to `COc1ccccc1` [anisole], the “log Kow values or predicted log Kow values” in data set [1] is listed as 2.11.

Consider `COC(=O)OC` [dimethyl carbonate], for which the “log Kow values or predicted log Kow values” in data set [1] is listed as 0.23. In addition, the “amount that dissolves in 1 L of water” value in data set [2] (Merck Index 14th Edition) and in data set [2] (setting [8]) was 139 g throughout.

As for `CCOC(C)=O` [ethyl acetate], the “log Kow values or predicted log Kow values” in data set [1] is 0.73. Further, the “amount that dissolves in 1 L of water” value in data set [2] (Merck Index 14th Edition) is given as 100 g.

For `CCCCCCC` [heptane], the “log Kow values or predicted log Kow values” in data set [1] is 4.66. Also, in data set [3], the “miscibility / solubility” value is listed as “insoluble in water”.

As to `CC(=O)OC(C)C` [isopropyl acetate], in data set [1], the “log Kow values or predicted log Kow values” is listed as 1.02. For the same compound, in data set [2] (Merck Index 14th Edition), the “amount that dissolves in 1 L of water” value is on record as 43 g.

As to “(5S,8S,11S,15S,18S,23aS,29S,35S,37aS)-8-((S)-sec-butyl)-18-cyclopentyl-29-(3,5-difluoro-4-(trifluoromethyl)phenethyl)-36-ethyl-11-isobutyl-N,N,5,6,12,16,19,33-octamethyl-35-(4-methylbenzyl)-4,7,10,13,17,20,23,28,31,34,37-undecaoxotetratriacontahydro-2H,4H-spiro[azeto[2,1-u]pyrrolo[2,1-i][1,4,7,10,13,16,19,22,25,28,31]undecaazacyclotetratriacontin-21,1′-cyclopentane]-15-carboxamide”, the water content in data set [4] was 17.5%. The acetone content in the data set “Amount of acetone by GC” came out at 3.7%.

For “(5S,8S,11S,15S,18S,23aS,29S,35S,37aS)-8-((S)-sec-butyl)-18-cyclopentyl-29-(3,5-difluoro-4-(trifluoromethyl)phenethyl)-36-ethyl-11-isobutyl-N,N,5,6,12,16,19,33-octamethyl-35-(4-methylbenzyl)-4,7,10,13,17,20,23,28,31,34,37-undecaoxotetratriacontahydro-2H,4H-spiro[azeto[2,1-u]pyrrolo[2,1-i][1,4,7,10,13,16,19,22,25,28,31]undecaazacyclotetratriacontin-21,1′-cyclopentane]-15-carboxamide [hydrate crystals (Form C) of Compound 1]”, the “shift in 2θ values” in data set [5] is recorded as at most 0.2 °. Further, in data set [6], the water content was 6.50 wt %. Besides, in data set [7], the “weight change as the hydration number changes” value is at most 3.3 % weight.
